Results as given in patent US11008572B2, “Methods and compositions for modulating splicing” (SKYHAWK THERAPEUTICS, INC., priority 2017, dated 2021).

What follows are compounds tested on A-673 cells (assay: Cell viability, crystal violet staining). Settings: Homo sapiens, A673, cell viability, read-out: A-673 IC50 (nM) Cell viability.
Format: cell-based
Description: To measure cell viability, cells were plated in 96-well plastic tissue culture plates at a density of 5×10^3 cells/well. Twenty-four hours after plating, cells were treated with various SMSMs. After 72 hours, the cell culture media were removed and plates were stained with […] of a solution containing 0.5% crystal violet and 25% methanol, rinsed with deionized water, dried overnight, and resuspended in […] citrate buffer (0.1 M sodium citrate in 50% ethanol) to assess plating efficiency. Intensity of crystal violet staining, assessed at 570 nm and quantified using a Vmax Kinetic Microplate Reader and Softmax software (Molecular Devices Corp., Menlo Park, Calif.), were directly proportional to cell number. Data were normalized to vehicle-treated cells and were presented as the mean±SE from representative experiments. SMSMs that are effective were determined for various cells lines.
A-673 cell viability […], splicing (IC50) and brain AUC/Plasma AUC of SMSMs were determined. As shown in the tables below SMSMs had high CNS exposure.
`COc1cc(-c2ccc(-c3ccc(N(C)[C@H]4C[C@]5(C)CC[C@](C)(C4)N5)nn3)c(O)c2)cc(F)n1` [compound 189, 2-(6-(((1R,3s,5S)-1,5-dimethyl-8-azabicyclo[3.2.1]octan-3-yl)(methyl)amino)pyridazin-3-yl)-5-(2-fluoro-6-methoxypyridin-4-yl)phenol] was tested, and the IC50 was 10 to 100 nM. For `CN(c1ccc(-c2ccc(-c3cc(O)nc(F)c3)cc2O)nn1)[C@H]1C[C@]2(C)CC[C@](C)(C1)N2` [compound 190, 4-(4-(6-(((1R,3s,5S)-1,5-dimethyl-8-azabicyclo[3.2.1]octan-3-yl)(methyl)amino)pyridazin-3-yl)-3-hydroxyphenyl)-6-fluoropyridin-2-ol], the IC50 was 101 to 250 nM. In the case of `CN(c1ccc(-c2cc(F)c(-c3ccn(CF)c(=O)c3)cc2O)nn1)[C@H]1C[C@]2(C)CC[C@](C)(C1)N2` [compound 193, 4-(4-(6-(((1R,3s,5S)-1,5-dimethyl-8-azabicyclo[3.2.1]octan-3-yl)(methyl)amino)pyridazin-3-yl)-2-fluoro-5-hydroxyphenyl)-1-(fluoromethyl)pyridin-2(1H)-one], the IC50 is reported as under 10 nM. With `CN(c1ccc(-c2ccc(-c3cc(=O)n(C)cn3)cc2O)nn1)[C@H]1C[C@]2(C)CC[C@](C)(C1)N2` [compound 194, 6-(4-(6-(((1R,3s,5S)-1,5-dimethyl-8-azabicyclo[3.2.1]octan-3-yl)(methyl)amino)pyridazin-3-yl)-3-hydroxyphenyl)-3-methylpyrimidin-4(3H)-one] the IC50 was 10 to 100 nM. `CN(c1ccc(-c2ccc(-c3cc(C#N)n(C)c3)cc2O)nn1)[C@H]1C[C@]2(C)CC[C@](C)(C1)N2` [compound 195, 4-(4-(6-(((1R,3s,5S)-1,5-dimethyl-8-azabicyclo[3.2.1]octan-3-yl)(methyl)amino)pyridazin-3-yl)-3-hydroxyphenyl)-1-methyl-1H-pyrrole-2-carbonitrile] showed an IC50 of 501 to 1000 nM. In the case of `CN(c1ccc(-c2ccc(-n3cnc(C#N)c3)cc2O)nn1)[C@H]1C[C@]2(C)CC[C@](C)(C1)N2` [compound 196, 1-(4-(6-(((1R,3s,5S)-1,5-dimethyl-8-azabicyclo[3.2.1]octan-3-yl)(methyl)amino)pyridazin-3-yl)-3-hydroxyphenyl)-1H-imidazole-4-carbonitrile], the IC50 is reported as 251 to 500 nM. With `CN(c1ccc(-c2cc(F)c(-n3cnc(C#N)c3)cc2O)nn1)[C@H]1C[C@]2(C)CC[C@](C)(C1)N2` [compound 197, 1-(4-(6-(((1R,3s,5S)-1,5-dimethyl-8-azabicyclo[3.2.1]octan-3-yl)(methyl)amino)pyridazin-3-yl)-2-fluoro-5-hydroxyphenyl)-1H-imidazole-4-carbonitrile] the IC50 was over 1000 nM. In the case of `CN(c1ccc(-c2cc(F)c(-c3cc(=O)n(C)cn3)cc2O)nn1)[C@H]1C[C@]2(C)CC[C@](C)(C1)N2` [compound 198, 6-(4-(6-(((1R,3s,5S)-1,5-dimethyl-8-azabicyclo[3.2.1]octan-3-yl)(methyl)amino)pyridazin-3-yl)-2-fluoro-5-hydroxyphenyl)-3-methylpyrimidin-4(3H)-one], the IC50 is reported as under 10 nM. `CN(c1ccc(-c2ccc(-c3ccnc(C#N)c3)cc2O)nn1)[C@H]1C[C@]2(C)CC[C@](C)(C1)N2` [compound 199] was tested, and the IC50 was 10 to 100 nM. For `CN(c1ccc(-c2ccc(-n3cc(C#N)cn3)cc2O)nn1)[C@H]1C[C@]2(C)CC[C@](C)(C1)N2` [compound 200, 1-(4-(6-(((1R,3s,5S)-1,5-dimethyl-8-azabicyclo[3.2.1]octan-3-yl)(methyl)amino)pyridazin-3-yl)-3-hydroxyphenyl)-1H-pyrazole-4-carbonitrile], the IC50 was 101 to 250 nM. `CCN(c1ccc(-c2ccc(-c3cn[nH]c3)cc2O)nn1)[C@H]1C[C@]2(C)CC[C@](C)(C1)N2` [compound 201, 2-(6-(((1R,3s,5S)-1,5-dimethyl-8-azabicyclo[3.2.1]octan-3-yl)(ethyl)amino)pyridazin-3-yl)-5-(1H-pyrazol-4-yl)phenol] showed an IC50 of 10 to 100 nM. Compound `CCN(c1ccc(-c2cc(F)c(-c3cn[nH]c3)cc2O)nn1)[C@H]1C[C@]2(C)CC[C@](C)(C1)N2` [compound 202, 2-(6-(((1R,3s,5S)-1,5-dimethyl-8-azabicyclo[3.2.1]octan-3-yl)(ethyl)amino)pyridazin-3-yl)-4-fluoro-5-(1H-pyrazol-4-yl)phenol] has an IC50 of 10 to 100 nM. With `CN(c1ccc(-c2ccc(-n3ccc(C#N)c3)cc2O)nn1)[C@H]1C[C@]2(C)CC[C@](C)(C1)N2` [compound 203, 1-(4-(6-(((1R,3s,5S)-1,5-dimethyl-8-azabicyclo[3.2.1]octan-3-yl)(methyl)amino)pyridazin-3-yl)-3-hydroxyphenyl)-1H-pyrrole-3-carbonitrile] the IC50 was 10 to 100 nM. With `CN(c1ccc(-c2ccc(-c3cc(F)nc(F)c3)cc2O)nn1)[C@H]1C[C@]2(C)CC[C@](C)(C1)N2` [compound 204, 5-(2,6-difluoropyridin-4-yl)-2-(6-(((1R,3s,5S)-1,5-dimethyl-8-azabicyclo[3.2.1]octan-3-yl)(methyl)amino)pyridazin-3-yl)phenol] the IC50 was 100 to 500 nM. `[2H]C([2H])([2H])Oc1cc(-c2ccc(-c3ccc(N(C)[C@H]4C[C@]5(C)CC[C@](C)(C4)N5)nn3)c(O)c2)cnn1` [compound 205, 2-(6-(((1R,3s,5S)-1,5-dimethyl-8-azabicyclo[3.2.1]octan-3-yl)(methyl)amino)pyridazin-3-yl)-5-(6-(methoxy-d3)pyridazin-4-yl)phenol] showed an IC50 of under 10 nM. `[2H]C([2H])([2H])Oc1cc(-c2cc(O)c(-c3ccc(N(C)[C@H]4C[C@]5(C)CC[C@](C)(C4)N5)nn3)cc2F)cnn1` [compound 206, 2-(6-(((1R,3s,5S)-1,5-dimethyl-8-azabicyclo[3.2.1]octan-3-yl)(methyl)amino)pyridazin-3-yl)-4-fluoro-5-(6-(methoxy-d3)pyridazin-4-yl)phenol] showed an IC50 of under 10 nM. With `[2H]C([2H])([2H])Oc1cc(-c2ccc(-c3ccc(N(C)[C@H]4C[C@]5(C)CC[C@](C)(C4)N5)nn3)c(O)c2)cc(F)n1` [compound 207, 2-(6-(((1R,3s,5S)-1,5-dimethyl-8-azabicyclo[3.2.1]octan-3-yl)(methyl)amino)pyridazin-3-yl)-5-(2-fluoro-6-(methoxy-d3)pyridin-4-yl)phenol] the IC50 was 10 to 100 nM. `[2H]C([2H])([2H])Oc1cc(-c2cc(O)c(-c3ccc(N(C)[C@H]4C[C@]5(C)CC[C@](C)(C4)N5)nn3)cc2F)cc(F)n1` [compound 208, 2-(6-(((1R,3s,5S)-1,5-dimethyl-8-azabicyclo[3.2.1]octan-3-yl)(methyl)amino)pyridazin-3-yl)-4-fluoro-5-(2-fluoro-6-(methoxy-d3)pyridin-4-yl)phenol] gave an IC50 of over 1000 nM. `COc1cccc(-c2ccc(-c3ccc(N(C)[C@H]4C[C@]5(C)CC[C@](C)(C4)N5)nn3)c(O)c2)c1` [compound 209, 4-(6-(((1R,3s,5S)-1,5-dimethyl-8-azabicyclo[3.2.1]octan-3-yl)(methyl)amino)pyridazin-3-yl)-3′-methoxy-[1,1′-biphenyl]-3-ol] gave an IC50 of over 1000 nM. Work on `COc1cc(-c2ccc(-c3ccc(N(C)[C@H]4C[C@]5(C)CC[C@](C)(C4)N5)nn3)c(O)c2)ccc1F` [compound 210, 4-(6-(((1R,3s,5S)-1,5-dimethyl-8-azabicyclo[3.2.1]octan-3-yl)(methyl)amino)pyridazin-3-yl)-4′-fluoro-3′-methoxy-[1,1′-biphenyl]-3-ol] yielded an IC50 of 251 to 500 nM. In the case of `COc1cncc(-c2ccc(-c3ccc(N(C)[C@H]4C[C@]5(C)CC[C@](C)(C4)N5)nn3)c(O)c2)c1` [compound 211, 2-(6-(((1R,3s,5S)-1,5-dimethyl-8-azabicyclo[3.2.1]octan-3-yl)(methyl)amino)pyridazin-3-yl)-5-(5-methoxypyridin-3-yl)phenol], the IC50 is reported as 251 to 500 nM. Compound `COc1cc(-c2cc(O)c(-c3ccc(N(C)[C@H]4C[C@]5(C)CC[C@](C)(C4)N5)nn3)cc2F)cnn1` [compound 213, 2-(6-(((1R,3s,5S)-1,5-dimethyl-8-azabicyclo[3.2.1]octan-3-yl)(methyl)amino)pyridazin-3-yl)-4-fluoro-5-(6-methoxypyridazin-4-yl)phenol] has an IC50 of under 10 nM.

Same assay, conditions: Homo sapiens, A673, cell viability, read-out: A-673 IC50 (nM), Cell viability
In the case of `Cc1nnnn1-c1ccc(-c2ccc(N(C)[C@@H]3C[C@H]4CC[C@@H](C3)N4)nn2)c(O)c1` [compound 233, 2-(6-(((1R,3s,5S)-8-azabicyclo[3.2.1]octan-3-yl)(methyl)amino)pyridazin-3-yl)-5-(5-methyl-1H-tetrazol-1-yl)phenol], the IC50 is reported as over 1000 nM. `CN(c1ccc(-c2ccc(-n3cnnc3)cc2O)nn1)[C@@H]1C[C@H]2CC[C@@H](C1)N2` [compound 235, 2-(6-(((1R,3s,5S)-8-azabicyclo[3.2.1]octan-3-yl)(methyl)amino)pyridazin-3-yl)-5-(4H-1,2,4-triazol-4-yl)phenol] gave an IC50 of over 1000 nM. `Cc1ccc(-c2ccc(-c3ccc(N(C)[C@@H]4C[C@H]5CC[C@@H](C4)N5)nn3)c(O)c2)cn1` [compound 236, 2-(6-(((1R,3s,5S)-8-azabicyclo[3.2.1]octan-3-yl)(methyl)amino)pyridazin-3-yl)-5-(6-methylpyridin-3-yl)phenol] was tested, and the IC50 was 101 to 250 nM. `Cc1ncc(-c2ccc(-c3ccc(N(C)[C@@H]4C[C@H]5CC[C@@H](C4)N5)nn3)c(O)c2)cn1` [compound 237, 2-(6-(((1R,3s,5S)-8-azabicyclo[3.2.1]octan-3-yl)(methyl)amino)pyridazin-3-yl)-5-(2-methylpyrimidin-5-yl)phenol] showed an IC50 of 501 to 1000 nM. Work on `Cc1ncn(-c2ccc(-c3ccc(N(C)[C@@H]4C[C@H]5CC[C@@H](C4)N5)nn3)c(O)c2)n1` [compound 244, 2-(6-(((1R,3s,5S)-8-azabicyclo[3.2.1]octan-3-yl)(methyl)amino)pyridazin-3-yl)-5-(3-methyl-1H-1,2,4-triazol-1-yl)phenol] yielded an IC50 of 101 to 250 nM.

Same assay, conditions: Homo sapiens, A673, read-out: A-673 cell viability (IC50)
In the case of `CN(c1ccc(-c2cc(F)c(-c3ccn(CF)c(=O)c3)cc2O)nn1)[C@H]1C[C@]2(C)CC[C@](C)(C1)N2` [compound 193, 4-(4-(6-(((1R,3s,5S)-1,5-dimethyl-8-azabicyclo[3.2.1]octan-3-yl)(methyl)amino)pyridazin-3-yl)-2-fluoro-5-hydroxyphenyl)-1-(fluoromethyl)pyridin-2(1H)-one], the IC50 is reported as under 3 nM.
